The assay concerns the target T1, mouse GnRH receptor (Mus musculus, UniProt Q01776).
T1 construct: expressed in transfected cells; host or cells: 293 cells
T1 sequence (Q01776 1-327): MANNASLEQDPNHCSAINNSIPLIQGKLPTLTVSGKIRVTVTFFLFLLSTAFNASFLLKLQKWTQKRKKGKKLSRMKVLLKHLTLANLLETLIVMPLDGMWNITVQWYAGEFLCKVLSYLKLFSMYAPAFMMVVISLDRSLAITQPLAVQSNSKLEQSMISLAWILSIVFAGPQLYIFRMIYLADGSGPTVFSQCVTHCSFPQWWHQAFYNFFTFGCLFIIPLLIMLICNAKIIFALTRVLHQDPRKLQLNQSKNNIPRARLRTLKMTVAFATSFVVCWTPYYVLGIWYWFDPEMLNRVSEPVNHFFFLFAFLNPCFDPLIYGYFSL
In words: Radioligand binding, 125I-GnRH-A, 293 cells expressing mouse GnRH receptors. As to conditions: 10 uM; read-out: % Inhib. @ 10 uM mGnRH. The procedure, abridged: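 Bound label captured on 0.1% polyethyleneimine-treated GF/C filters, washed three times with PBS, counted. IC50 derived; identical set-up for every species.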
On to `Cc1cc2c(cc1Cc1ccc(C(=O)N3CCC(O)(c4ccc(Br)cc4)CC3)o1)C(C)(C)CCC2(C)C` [drawing 1512], for which the inhibition at 10 µM was found to be 49%.

Consider `COc1cccc(N2CCN(C(=O)c3ccc(Cc4cc5c(cc4C)C(C)(C)CCC5(C)C)o3)CC2C)c1` (stereo not shown) [drawing 1513], for which the inhibition at 10 µM came to 76%.

Regarding `Cc1cc2c(cc1Cc1ccc(C(=O)N3CCc4ccccc4C3Cc3ccccc3)o1)C(C)(C)CCC2(C)C` (stereo not shown) [drawing 1515], the inhibition at 10 µM was 46%.

With `Cc1cc2c(cc1Cc1ccc(C(=O)N(C)CCCN(C)C)o1)C(C)(C)CCC2(C)C` [drawing 1516], the inhibition at 10 µM came out at 92%.

For `Cc1cc2c(cc1Cc1ccc(C(=O)NCCCCCCN(C)C)o1)C(C)(C)CCC2(C)C` [drawing 1519], the inhibition at 10 µM is 106%.

Consider `Cc1cccc(N2CCN(C(=O)c3ccc(Cc4cc5c(cc4C)C(C)(C)CCC5(C)C)o3)CC2C)c1` (stereo not shown) [drawing 1520], for which the inhibition at 10 µM came to 73%.

On to `Cc1cc2c(cc1Cc1ccc(C(=O)NCCc3ccc(Cl)cc3)o1)C(C)(C)CCC2(C)C` [drawing 1521], for which the inhibition at 10 µM came to 81%.

For the compound `Cc1cc2c(cc1Cc1ccc(C(=O)NC3CCCCC3O)o1)C(C)(C)CCC2(C)C` (stereo not shown) [drawing 1522], the inhibition at 10 µM was found to be 97%.

In the case of `Cc1cc2c(cc1Cc1ccc(C(=O)N3CCCC(C)(C)C3)o1)C(C)(C)CCC2(C)C` [drawing 1523], the inhibition at 10 µM was found to be 98%.

As for `CCN(C(=O)c1ccc(Cc2cc3c(cc2C)C(C)(C)CCC3(C)C)o1)C1CCCCC1` [drawing 1524], the inhibition at 10 µM was 100%.

For the compound `Cc1cc2c(cc1Cc1ccc(C(=O)NCCc3c[nH]c4ccc(O)cc34)o1)C(C)(C)CCC2(C)C` [drawing 1526], the inhibition at 10 µM was 84%.

For `Cc1cc2c(cc1Cc1ccc(C(=O)NCCO)o1)C(C)(C)CCC2(C)C` [drawing 1527], the inhibition at 10 µM worked out at 53%.

Regarding `Cc1cc2c(cc1Cc1ccc(C(=O)NCCc3ccc(Oc4ccccc4)cc3)o1)C(C)(C)CCC2(C)C` [drawing 1529], the inhibition at 10 µM was 57%.

Consider `CCOC(=O)N1CCN(C(=O)c2ccc(Cc3cc4c(cc3C)C(C)(C)CCC4(C)C)o2)CC1` [drawing 1530], for which the inhibition at 10 µM was 65%.

On to `Cc1cc2c(cc1Cc1ccc(C(=O)N(C)CCC#N)o1)C(C)(C)CCC2(C)C` [drawing 1531], for which the inhibition at 10 µM amounted to 83%.

As for `COc1ccc(CCNC(=O)c2ccc(Cc3cc4c(cc3C)C(C)(C)CCC4(C)C)o2)cc1Br` [drawing 1532], the inhibition at 10 µM is 78%.

Regarding `Cc1cc2c(cc1Cc1ccc(C(=O)N3CCN(Cc4ccc(C(C)(C)C)cc4)CC3)o1)C(C)(C)CCC2(C)C` [drawing 1534], the inhibition at 10 µM came to 65%.

On to `Cc1cc2c(cc1Cc1ccc(C(=O)N(Cc3cccnc3)Cc3ccco3)o1)C(C)(C)CCC2(C)C` [drawing 1535], for which the inhibition at 10 µM was determined as 89%.

Regarding `Cc1cc2c(cc1Cc1ccc(C(=O)N(CCC#N)CCC#N)o1)C(C)(C)CCC2(C)C` [drawing 1536], the inhibition at 10 µM turned out to be 77%.

For the compound `CCC(O)CNC(=O)c1ccc(Cc2cc3c(cc2C)C(C)(C)CCC3(C)C)o1` (stereo not shown) [drawing 1537], the inhibition at 10 µM amounted to 99%.

Turning to `Cc1cc2c(cc1Cc1ccc(C(=O)N(Cc3cccnc3)Cc3cccnc3)o1)C(C)(C)CCC2(C)C` [drawing 1538], the inhibition at 10 µM worked out at 101%.

Take `CNC(=O)c1ccc(Cc2cc3c(cc2C)C(C)(C)CCC3(C)C)o1` [drawing 1539]: the inhibition at 10 µM stood at 23%.

As for `Cc1cc2c(cc1Cc1ccc(C(=O)N(Cc3ccccc3)C(C)C)o1)C(C)(C)CCC2(C)C` [drawing 1541], the inhibition at 10 µM came to 84%.

`Cc1cc2c(cc1Cc1ccc(C(=O)N(Cc3ccccc3)[C@@H](C)c3ccccc3)o1)C(C)(C)CCC2(C)C` [drawing 1542]: the inhibition at 10 µM is 46%.

Consider `CCN(Cc1ccc(C)cc1)C(=O)c1ccc(Cc2cc3c(cc2C)C(C)(C)CCC3(C)C)o1` [drawing 1543], for which the inhibition at 10 µM stood at 79%.

`Cc1cc2c(cc1Cc1ccc(C(=O)N3CCC(NC(=O)OC(C)(C)C)C3)o1)C(C)(C)CCC2(C)C` (stereo not shown) [drawing 1544]: the inhibition at 10 µM stood at 82%.

Turning to `Cc1cc2c(cc1Cc1ccc(C(=O)N3CCCC3C)o1)C(C)(C)CCC2(C)C` (stereo not shown) [drawing 1545], the inhibition at 10 µM was 102%.

On to `CCC(CC)NC(=O)c1ccc(Cc2cc3c(cc2C)C(C)(C)CCC3(C)C)o1` [drawing 1546], for which the inhibition at 10 µM is 76%.

In the case of `CCCC(CO)NC(=O)c1ccc(Cc2cc3c(cc2C)C(C)(C)CCC3(C)C)o1` (stereo not shown) [drawing 1547], the inhibition at 10 µM amounted to 99%.

On to `CCCCN(C)C(=O)c1ccc(Cc2cc3c(cc2C)C(C)(C)CCC3(C)C)o1` [drawing 1548], for which the inhibition at 10 µM was 100%.

Regarding `COC(CN(C)C(=O)c1ccc(Cc2cc3c(cc2C)C(C)(C)CCC3(C)C)o1)OC` [drawing 1549], the inhibition at 10 µM was found to be 90%.

Turning to `Cc1cc2c(cc1Cc1ccc(C(=O)NCCCCCCO)o1)C(C)(C)CCC2(C)C` [drawing 1550], the inhibition at 10 µM was 103%.

On to `Cc1cc2c(cc1Cc1ccc(C(=O)N(CCC(c3ccccc3)c3ccccc3)Cc3ccco3)o1)C(C)(C)CCC2(C)C` [drawing 1552], for which the inhibition at 10 µM came to 43%.

As to `Cc1cc2c(cc1Cc1ccc(C(=O)N(CCC(c3ccccc3)c3ccccc3)Cc3ccccn3)o1)C(C)(C)CCC2(C)C` [drawing 1554], the inhibition at 10 µM was 50%.

Take `Cc1cc2c(cc1Cc1ccc(C(=O)N(CCc3ccccc3)Cc3ccoc3)o1)C(C)(C)CCC2(C)C` [drawing 1557]: the inhibition at 10 µM turned out to be 61%.

Consider `COc1ccccc1CN(C(=O)c1ccc(Cc2cc3c(cc2C)C(C)(C)CCC3(C)C)o1)C1CCN(Cc2ccccc2)C1` (stereo not shown) [drawing 1558], for which the inhibition at 10 µM was found to be 91%.

`Cc1cc2c(cc1Cc1ccc(C(=O)N(Cc3ccco3)C3CCN(Cc4ccccc4)C3)o1)C(C)(C)CCC2(C)C` (stereo not shown) [drawing 1559]: the inhibition at 10 µM came to 94%.

As for `Cc1cc2c(cc1Cc1ccc(C(=O)N(Cc3ccsc3)C3CCN(Cc4ccccc4)C3)o1)C(C)(C)CCC2(C)C` (stereo not shown) [drawing 1560], the inhibition at 10 µM is 91%.

In the case of `Cc1cc2c(cc1Cc1ccc(C(=O)N(Cc3ccoc3)C3CCN(Cc4ccccc4)C3)o1)C(C)(C)CCC2(C)C` (stereo not shown) [drawing 1561], the inhibition at 10 µM was determined as 91%.

As for `Cc1cc2c(cc1Cc1ccc(C(=O)N(Cc3cccn3C)C3CCN(Cc4ccccc4)C3)o1)C(C)(C)CCC2(C)C` (stereo not shown) [drawing 1562], the inhibition at 10 µM came out at 98%.

As to `Cc1cc2c(cc1Cc1ccc(C(=O)N(Cc3cccc4ccccc34)C3CCN(Cc4ccccc4)C3)o1)C(C)(C)CCC2(C)C` (stereo not shown) [drawing 1563], the inhibition at 10 µM was found to be 57%.

`Cc1cc2c(cc1Cc1ccc(C(=O)N(Cc3ccc(C(C)C)cc3)C3CCN(Cc4ccccc4)C3)o1)C(C)(C)CCC2(C)C` (stereo not shown) [drawing 1564]: the inhibition at 10 µM is 48%.

`CCN1CC(N(Cc2ccccc2C#N)C(=O)c2ccc(Cc3cc4c(cc3C)C(C)(C)CCC4(C)C)o2)CN1CC` [drawing 1565]: the inhibition at 10 µM turned out to be 101%.

Regarding `CCN1CC(N(Cc2ccc(N(C)C)cc2)C(=O)c2ccc(Cc3cc4c(cc3C)C(C)(C)CCC4(C)C)o2)CN1CC` [drawing 1566], the inhibition at 10 µM was 95%.

For `CCN1CC(N(CCC(C)CCCC(C)(C)O)C(=O)c2ccc(Cc3cc4c(cc3C)C(C)(C)CCC4(C)C)o2)CN1CC` (stereo not shown) [drawing 1567], the inhibition at 10 µM amounted to 104%.

On to `CCN1CC(N(CCC(C)c2ccccc2)C(=O)c2ccc(Cc3cc4c(cc3C)C(C)(C)CCC4(C)C)o2)CN1CC` (stereo not shown) [drawing 1568], for which the inhibition at 10 µM came out at 95%.

Source of the values: patent US7101878B1 (Agouron Pharmaceuticals, Inc., priority 1998, dated 2006).
